Our source for the Solubility values is patent US11746085B2, “Triphenylsulfonium salt compound, and uses thereof” (Changzhou Tronly Advanced Electronic Materials Co., Ltd., priority 2018, dated 2023).

The data set can be described thus: Dissolution performance test: solubility in 3-ethyl-3-hydroxymethyl oxetane monomer. The class given is physicochemical. To be noted: Table 3; maximum number of grams dissolved in 100 g 3-ethyl-3-hydroxymethyl oxetane monomer at 20° C. The method, then: The solubility in 3-ethyl-3-hydroxymethyl oxetane monomer was tested for Compound A-1 to A-38 and C-1 to C-25, and comparative compounds B-1 and B-2 as well as D-1 and D-2 in the present invention, calculated based on the maximum number of grams dissolved in 100 g solvent at 20° C.

`Cc1ccc([S+](c2ccc(Sc3ccccc3)cc2)c2ccc(C)c(F)c2)cc1F` [Compound A-12] registered a Solubility of 24.5 g.
Then `Fc1cccc([S+](c2ccccc2)c2ccccc2)c1` [Compound B-1, reference compound], with 12.1 g.
